Like-named read-outs stand apart in the source and are kept apart here.
Key:
[1] = tested on: rats with acute hepatitis induced with CCI4;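 further: endpoints determined in blood and liver tissue collected when the rats were sacrificed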
THP-1 cells = conditions: IMMP 10^−10M, no cortisone
[2] = Acute Hepatitis + IMMP, time of CCI4 24
[3] = Acute Hepatitis + IMMP, time of CCI4 48
[4] = Acute Hepatitis + IMMP, time of CCI4 72

## Peptide LEDGPKFL + Zinc [IMMP]
[1]; [2]
  Serum ALT: 351.0 ± 10.4 UI/L
  Serum AST: 493.6 ± 30.3 UI/L
  Serum PA (alkaline phosphatase): 1139.0 ± 86.8 UI/L
[1]; [3]
  Serum ALT: 275.54 ± 22.3 UI/L
  Serum AST: 377.0 ± 17.7 UI/L
  Serum PA (alkaline phosphatase): 1287.5 ± 83.6 UI/L
[1]; [4]
  Serum ALT: 233.0 ± 20.8 UI/L
  Serum AST: 230.2 ± 15.4 UI/L
  Serum PA (alkaline phosphatase): 1306.2 ± 90.7 UI/L
[1]; CCI4 + IMMP, 24 hours
  Hepatic glutathione: 13.3 ± 3.3 ng/mg of tissue
[1]; CCI4 + IMMP, 24 hours after CCI4
  Relative weight of the liver (organ weight / weight of the animal): 8.0 ± 0.9 ^ relative units
[1]; CCI4 + IMMP, 48 hours
  Hepatic glutathione: 14.2 ± 2.8 ng/mg of tissue
[1]; CCI4 + IMMP, 48 hours after CCI4
  Relative weight of the liver (organ weight / weight of the animal): 6.8 ± 0.7 relative units
[1]; CCI4 + IMMP, 72 hours
  Hepatic glutathione: 3.7 ± 1.6 ng/mg of tissue
[1]; CCI4 + IMMP, 72 hours after CCI4
  Relative weight of the liver (organ weight / weight of the animal): 5.7 ± 0.5 relative units
[1]; IMMP alone, no CCI4, 24 hours, 100 ng/kg i.p. x3
  Relative weight of the liver (organ weight / weight of the animal): 5.4 ± 0.5 relative units
[1]; IMMP alone, no CCI4, 48 hours, 100 ng/kg i.p. x3
  Relative weight of the liver (organ weight / weight of the animal): 5.0 ± 0.4 relative units
[1]; IMMP alone, no CCI4, 72 hours, 100 ng/kg i.p. x3
  Relative weight of the liver (organ weight / weight of the animal): 4.9 ± 0.2 relative units
[1]; IMMP alone, 24 hours
  Hepatic glutathione: 3.1 ± 1.0 ng/mg of tissue
[1]; IMMP alone, 48 hours
  Hepatic glutathione: 3.5 ± 0.3 ng/mg of tissue
[1]; IMMP alone, 72 hours
  Hepatic glutathione: 5.1 ± 0.6 ng/mg of tissue
[1]; IMMP alone, time 24
  Serum ALT: 64.0 ± 22.4 UI/L
  Serum AST: 72.4 ± 4.1 UI/L
  Serum PA (alkaline phosphatase): 525.0 ± 160 UI/L
[1]; IMMP alone, time 48
  Serum ALT: 73.1 ± 6.1 UI/L
  Serum AST: 72.5 ± 3.9 UI/L
  Serum PA (alkaline phosphatase): 804.5 ± 39.5 UI/L
[1]; IMMP alone, time 72
  Serum ALT: 71.4 ± 8.4 UI/L
  Serum AST: 71.6 ± 6.9 UI/L
  Serum PA (alkaline phosphatase): 604.0 ± 26.9 UI/L
THP-1 cells
  Cell Viability (% with respect to the control): 180 ± 5%
